Reference: patent publication US8613927B2, “High affinity human antibodies to human nerve growth factor” (Regeneron Pharmaceuticals, Inc., priority 2007, dated 2013)

Experiments:
[1] = target: T1, human NT-3 binding to human p75-hFc (Homo sapiens, UniProt P20783); assay: BIACORE, NT-3 binding to p75-hFc surface in presence of antibody; settings: 20 nM NT-3 + 500 nM sample; normalized to IgG1 control
T1 sequence (P20783 139-257): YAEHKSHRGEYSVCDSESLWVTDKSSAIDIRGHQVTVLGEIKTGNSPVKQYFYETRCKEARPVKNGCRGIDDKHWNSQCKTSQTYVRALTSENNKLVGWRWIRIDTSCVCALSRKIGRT
Procedure: (§1) Human TrkA-hFc (9300 RU), human TrkB-hFc (6000 RU), human TrkC-hFc (9100 RU) and human p75-hFc (7500 RU) were covalently coupled to BIACORE® CM5 chip surfaces by amine-coupling procedure. […] The binding mixture was first incubated at room temperature to reach equilibrium (about 1 hr) and then was injected over the above TrkA-hFc, TrkB-hFc, TrkC-hFc and p75-hFc surfaces. The level of human NT-3 binding in each sample was measured. The binding RU from each sample mixture was normalized according to the RU value from the negative control sample (i.e., 20 nM human NT-3 with 500 nM AVASTIN®) and presented as % binding to Trk surfaces (Table 9).

mouse NGF (mNGF) = mouse NGF (mNGF) (Mus musculus, UniProt P01139); assay: BIACORE binding affinity to mouse NGF
Procedure: Antigen binding affinities of the antibodies for human NGF were determined by surface kinetics using a real-time biosensor surface plasmon resonance assay (BIACORE™). Antibodies were captured on either a goat, anti-human or anti-mouse IgG polyclonal antibody surface created by direct amine coupling of the capture antibody to a BIACORE™ chip. Various concentrations of human NGF were injected over the captured antibody surfaces while the association of the antigen to the antibody and the dissociation of the bound complex were monitored in real time. Kinetic analysis was performed to obtain the equilibrium dissociation constant (KD) and dissociation rate constant, and the latter was used to calculate the antigen/antibody complex dissociation t1/2 (Table 1).
Human NGF (NGF) is highly homologous in amino acid sequence to mouse NGF (mNGF) and rat NGF (rNGF) with about 90% identity. The binding affinities of the antibodies to both mNGF and rNGF were determined as described above.
The binding affinity of selected purified anti-NGF antibodies to mNGF and rNGF were also determined (Table 6).

C57BL/6 mice = assay: Post-operative incision pain model, mechanical allodynia in von Frey test; format: in vivo, mouse; settings: Table 17
Procedure: Thermal hyperalgesia was studied in the Hargreaves' test and mechanical allodynia was tested in the von Frey test. In this latter test, mice were tested after being acclimated for 2-3 hours for 4 days in an apparatus with a wire mesh floor. The test was performed by applying, in ascending order, a series of von Frey hairs through the wire mesh onto the plantar surface of the hind paw with the incision. A response was considered positive if the paw was raised from the platform in response to application of the filament. Starting from the thinnest hair, each von Frey filament was applied up to five times until a response was observed.

[2] = target: T2, human NT-3 binding to human TrkB-hFc (Homo sapiens, UniProt P20783); assay: BIACORE, NT-3 binding to TrkB-hFc surface in presence of antibody; settings: 20 nM NT-3 + 500 nM sample; normalized to IgG1 control
T2 sequence (P20783 139-257): T1 sequence (P20783 139-257)
Procedure: as §1

[3] = target: T3, human NT-3 binding to human TrkC-hFc (Homo sapiens, UniProt P20783); assay: BIACORE, NT-3 binding to TrkC-hFc surface in presence of antibody; settings: 20 nM NT-3 + 500 nM sample; normalized to IgG1 control
T3 sequence (P20783 139-257): T1 sequence (P20783 139-257)
Procedure: as §1

[4] = target: T4, human NT-3 binding to human TrkA-hFc (Homo sapiens, UniProt P20783); assay: BIACORE, NT-3 binding to TrkA-hFc surface in presence of antibody; settings: 20 nM NT-3 + 500 nM sample; normalized to IgG1 control
T4 sequence (P20783 139-257): T1 sequence (P20783 139-257)
Procedure: as §1

C57BL/6 male mice = assay: Seltzer model of neuropathic pain, Hargreaves' test; format: in vivo, mouse
Description: Neuropathic pain. The mouse Seltzer model of neuropathic pain (Malmberg et al. (1998) Pain 76:215-222) was used with C57BL/6 male mice, in which a partial nerve injury was produced by tying a tight ligature with a 7-0 silk suture around approximately ⅓ to ½ the diameter of the sciatic nerve of one single thigh per mouse. Post-surgery, the mice were allowed to recover for at least two days and then they were studied for several weeks post-surgery for thermal hyperalgesia in the Hargreaves' test. Controls were sham-operated mice in which the sciatic nerve was exposed and elevated but not tied. Following surgery, the mice were tested at day […] and at day 7 post-surgery to confirm that the thermal hyperalgesia had developed.
Following the Seltzer surgery, mice were tested at days 5 and 7 post-surgery to confirm that the thermal hyperalgesia had developed.

Chain of mouse NGF (mNGF) (P01139 122-241): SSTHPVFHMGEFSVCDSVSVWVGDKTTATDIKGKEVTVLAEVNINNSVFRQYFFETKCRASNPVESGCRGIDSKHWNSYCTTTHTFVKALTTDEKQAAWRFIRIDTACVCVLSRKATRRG

## tanezumab [RN624]
[1]
  % binding to p75-hFc surface: 19%
Mouse NGF (mNGF); Table 5
  Kd: 1.4 pM
Mouse NGF (mNGF); Table 6, selected purified antibodies
  Kd: 1.4 pM
C57BL/6 mice; 25 mg/kg i.p. on day 1 post-surgery, Baseline
  Paw Withdrawal Threshold: 1.314 ± 0.137 g
C57BL/6 mice; 25 mg/kg i.p., 5 hr after treatment
  Paw Withdrawal Threshold: 0.083 ± 0.053 g
C57BL/6 mice; 25 mg/kg i.p., 22 hr after treatment
  Paw Withdrawal Threshold: 0.610 ± 0.123 g
C57BL/6 mice; 25 mg/kg i.p., 45 hr after treatment
  Paw Withdrawal Threshold: 0.909 ± 0.216 g
C57BL/6 mice; 25 mg/kg i.p., 70 hr after treatment
  Paw Withdrawal Threshold: 1.143 ± 0.189 g
C57BL/6 mice; 25 mg/kg i.p., Day 1 (post-surgery, before injection)
  Paw Withdrawal Threshold: 0.010 ± 0.002 g
[2]
  % binding to TrkB-hFc surface: 8%
[3]
  % binding to TrkC-hFc surface: 8%
[4]
  % binding to TrkA-hFc surface: 7%
C57BL/6 male mice; 50 mg/kg s.c. or i.p. at day 7 post-surgery, p<0.001-0.05
  pain relief: Significant pain relief was observed
C57BL/6 male mice; Table 25, 50 mg/kg s.c. at day 7, day 5 after surgery
  mean percent change from Hargreaves baseline: −53.5 ± 6.3%
C57BL/6 male mice; Table 25, 50 mg/kg s.c. at day 7, day 7
  mean percent change from Hargreaves baseline: −48.4 ± 6.2%
C57BL/6 male mice; Table 25, 50 mg/kg s.c. at day 7, day 8
  mean percent change from Hargreaves baseline: 4.5 ± 9.0%
C57BL/6 male mice; Table 25, 50 mg/kg s.c. at day 7, day 9
  mean percent change from Hargreaves baseline: −15.2 ± 8.5%
C57BL/6 male mice; Table 25, 50 mg/kg s.c. at day 7, day 12
  mean percent change from Hargreaves baseline: −4.2 ± 12.0%
C57BL/6 male mice; Table 25, 50 mg/kg s.c. at day 7, day 15
  mean percent change from Hargreaves baseline: 2.1 ± 10.9%
C57BL/6 male mice; Table 25, 50 mg/kg s.c. at day 7, day 19
  mean percent change from Hargreaves baseline: −11.5 ± 12.1%
C57BL/6 male mice; Table 25, 50 mg/kg s.c. at day 7, day 22
  mean percent change from Hargreaves baseline: −5.7 ± 9.5%
C57BL/6 male mice; Table 25, 50 mg/kg s.c. at day 7 post-surgery, Baseline
  mean percent change from Hargreaves baseline: 0.0 ± 0.0%
C57BL/6 male mice; Table 26, 50 mg/kg i.p. at day 7, day 5 after surgery
  mean percent change from Hargreaves baseline: −56.6 ± 2.3%
C57BL/6 male mice; Table 26, 50 mg/kg i.p. at day 7, day 7
  mean percent change from Hargreaves baseline: −62.3 ± 3.4%
C57BL/6 male mice; Table 26, 50 mg/kg i.p. at day 7, day 8
  mean percent change from Hargreaves baseline: −3.3 ± 16.0%
C57BL/6 male mice; Table 26, 50 mg/kg i.p. at day 7, day 9
  mean percent change from Hargreaves baseline: −18.4 ± 12.9%
C57BL/6 male mice; Table 26, 50 mg/kg i.p. at day 7, day 12
  mean percent change from Hargreaves baseline: −7.0 ± 11.8%
C57BL/6 male mice; Table 26, 50 mg/kg i.p. at day 7, day 15
  mean percent change from Hargreaves baseline: −16.2 ± 14.8%
C57BL/6 male mice; Table 26, 50 mg/kg i.p. at day 7 post-surgery, Baseline
  mean percent change from Hargreaves baseline: 0.0 ± 0.0%
